PMC6561338 (Organic & biomolecular chemistry, 2018)
Where two headings read alike, the source gives them in different places. Blank lines part the entries; values can stand above or below the compound they belong to.

Experiments:
recombinant human S1PR1 = recombinant human S1PR1 (Homo sapiens, UniProt P21453); experiment: [32P]S1P competitive binding assay, S1PR1; conditions: for fold decrease of S1PR1 binding potency compared to 10a: ratio of IC50 values versus 10a
recombinant human S1PR4 = target: T1, recombinant human S1PR4 (Homo sapiens, UniProt O95977); experiment: [32P]S1P competitive binding assay, S1PR4; conditions: read-out: IC50 S1PR4; competition against [32P]S1P, recombinant human S1PR4 membranes; mean ± SD
T1 sequence (O95977 1-384): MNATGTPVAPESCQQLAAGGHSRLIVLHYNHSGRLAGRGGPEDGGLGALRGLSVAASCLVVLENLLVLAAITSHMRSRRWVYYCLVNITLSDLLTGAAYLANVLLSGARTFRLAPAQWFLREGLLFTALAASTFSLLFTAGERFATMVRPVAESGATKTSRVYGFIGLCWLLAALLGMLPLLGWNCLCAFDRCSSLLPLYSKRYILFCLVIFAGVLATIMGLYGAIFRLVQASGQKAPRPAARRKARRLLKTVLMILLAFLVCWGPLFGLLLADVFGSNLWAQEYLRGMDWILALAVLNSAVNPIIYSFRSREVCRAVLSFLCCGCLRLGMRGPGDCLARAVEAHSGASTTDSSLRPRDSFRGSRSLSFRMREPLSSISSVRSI

recombinant human S1PR3 = recombinant human S1PR3 (Homo sapiens, UniProt Q99500); experiment: [32P]S1P competitive binding assay, S1PR3
Chain of recombinant human S1PR3 (Q99500 whole entry): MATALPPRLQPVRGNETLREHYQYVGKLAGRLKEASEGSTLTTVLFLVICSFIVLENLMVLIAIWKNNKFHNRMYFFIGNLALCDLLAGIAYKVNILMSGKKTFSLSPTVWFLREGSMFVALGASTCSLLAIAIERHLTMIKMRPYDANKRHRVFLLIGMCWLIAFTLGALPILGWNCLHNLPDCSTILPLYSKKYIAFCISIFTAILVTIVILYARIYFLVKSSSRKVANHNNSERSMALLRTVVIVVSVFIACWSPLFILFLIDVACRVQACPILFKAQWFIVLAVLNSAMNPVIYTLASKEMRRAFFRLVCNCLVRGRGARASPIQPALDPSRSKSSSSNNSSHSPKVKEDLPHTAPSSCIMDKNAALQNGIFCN

recombinant human S1PR5 = recombinant human S1PR5 (Homo sapiens, UniProt Q9H228); experiment: [32P]S1P competitive binding assay, S1PR5; conditions: read-out: IC50 S1PR5; competition against [32P]S1P, recombinant human S1PR5 membranes; mean ± SD
Chain of recombinant human S1PR5 (Q9H228 whole entry): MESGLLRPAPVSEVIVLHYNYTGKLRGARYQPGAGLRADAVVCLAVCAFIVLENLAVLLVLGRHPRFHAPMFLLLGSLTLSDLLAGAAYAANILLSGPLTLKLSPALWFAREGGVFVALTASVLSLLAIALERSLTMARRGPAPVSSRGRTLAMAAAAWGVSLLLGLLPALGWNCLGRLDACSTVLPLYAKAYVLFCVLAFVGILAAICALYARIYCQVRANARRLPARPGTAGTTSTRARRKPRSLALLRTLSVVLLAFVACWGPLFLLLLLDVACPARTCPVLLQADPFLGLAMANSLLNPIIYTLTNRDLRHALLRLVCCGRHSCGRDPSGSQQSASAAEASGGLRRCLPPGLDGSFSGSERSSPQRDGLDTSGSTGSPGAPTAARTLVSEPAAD

recombinant human S1PR2 = recombinant human S1PR2 (Homo sapiens, UniProt O95136); experiment: [32P]S1P competitive binding assay, S1PR2
Chain of recombinant human S1PR2 (O95136 whole entry): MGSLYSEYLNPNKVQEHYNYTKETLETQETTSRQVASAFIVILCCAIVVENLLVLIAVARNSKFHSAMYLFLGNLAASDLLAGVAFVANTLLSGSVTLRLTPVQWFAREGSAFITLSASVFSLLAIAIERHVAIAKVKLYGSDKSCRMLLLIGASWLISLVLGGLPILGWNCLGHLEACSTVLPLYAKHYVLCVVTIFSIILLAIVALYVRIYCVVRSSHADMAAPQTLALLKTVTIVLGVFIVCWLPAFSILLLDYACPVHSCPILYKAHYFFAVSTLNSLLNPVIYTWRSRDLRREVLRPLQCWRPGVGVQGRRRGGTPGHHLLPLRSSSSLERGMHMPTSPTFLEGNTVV

[1] = read-out: IC50 S1PR1, competition against [32P]S1P, cell membranes expressing recombinant human S1PR1, mean ± SD, at least 3 independent experiments in duplicate

Chain of recombinant human S1PR1 (P21453 whole entry): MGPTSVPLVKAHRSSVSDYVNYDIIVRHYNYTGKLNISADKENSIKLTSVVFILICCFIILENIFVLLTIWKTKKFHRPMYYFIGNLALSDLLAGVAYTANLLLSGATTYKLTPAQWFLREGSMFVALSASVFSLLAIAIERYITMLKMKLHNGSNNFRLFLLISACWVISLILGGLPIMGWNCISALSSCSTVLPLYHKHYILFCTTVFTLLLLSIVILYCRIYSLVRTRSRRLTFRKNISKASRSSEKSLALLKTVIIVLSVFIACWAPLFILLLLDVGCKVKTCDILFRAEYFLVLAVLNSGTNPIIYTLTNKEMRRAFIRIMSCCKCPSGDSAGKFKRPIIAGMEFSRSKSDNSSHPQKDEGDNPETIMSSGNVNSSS

IC50 (recombinant human S1PR3): > 1 µM
IC50 (recombinant human S1PR2): > 1 µM
Structure (SMILES): OCCOCc1ccc(-c2noc(-c3ccc(OCCF)c(C(F)(F)F)c3)n2)cc1 [17a, 2-((4-(5-(4-(2-Fluoroethoxy)-3-(trifluoromethyl)phenyl)-1,2,4-oxadiazol-3-yl)benzyl)oxy)ethan-1-ol]

IC50 (recombinant human S1PR3): > 1 µM
IC50 (recombinant human S1PR2): > 1 µM
Structure (SMILES): OCCOCCOCc1ccc(-c2noc(-c3ccc(OCCF)c(C(F)(F)F)c3)n2)cc1 [17b, 2-(2-((4-(5-(4-(2-Fluoroethoxy)-3-(trifluoromethyl)phenyl)-1,2,4-oxadiazol-3-yl)benzyl)oxy)ethoxy)ethan-1-ol]

fold decrease of S1PR1 binding potency compared to 10a (recombinant human S1PR1): approximately 16 fold
Structure (SMILES): OCCOCCOCCOCc1ccc(-c2noc(-c3ccc(OCCF)c(C(F)(F)F)c3)n2)cc1 [17c, 2-(2-(2-((4-(5-(4-(2-Fluoroethoxy)-3-(trifluoromethyl)phenyl)-1,2,4-oxadiazol-3-yl)benzyl)oxy)ethoxy)ethoxy)ethan-1-ol]

IC50 (recombinant human S1PR1): 0.0566 µM
Structure (SMILES): OCCOc1ccc(-c2noc(-c3ccc(OCCF)c(C(F)(F)F)c3)n2)cc1 [20a, 2-(4-(5-(4-(2-Fluoroethoxy)-3-(trifluoromethyl)phenyl)-1,2,4-oxadiazol-3-yl)phenoxy)ethan-1-ol]

Second part, the compound before the results:

Structure (SMILES): CN(Cc1ccc(-c2noc(-c3ccc(OCCF)c(C(F)(F)F)c3)n2)cc1)CC(O)CO (racemic) [(±)-13a, (±)-3-((4-(5-(4-(2-Fluoroethoxy)-3-(trifluoromethyl)phenyl)-1,2,4-oxadiazol-3-yl)benzyl)(methyl)amino)propane-1,2-diol]
IC50 (recombinant human S1PR1; [1]): 0.0399 µM

Structure (SMILES): OCC(O)COCc1ccc(-c2noc(-c3ccc(OCCF)c(C(F)(F)F)c3)n2)cc1 (racemic) [(±)-20b, (±)-3-((4-(5-(4-(2-Fluoroethoxy)-3-(trifluoromethyl)phenyl)-1,2,4-oxadiazol-3-yl)benzyl)oxy)propane-1,2-diol]
IC50 (recombinant human S1PR1; [1]): 0.0238 µM

Structure (SMILES): OCC(O)c1ccc(-c2noc(-c3ccc(OCCF)c(C(F)(F)F)c3)n2)cc1 (racemic) [(±)-24, (±)-1-(4-(5-(4-(2-Fluoroethoxy)-3-(trifluoromethyl)phenyl)-1,2,4-oxadiazol-3-yl)phenyl)ethane-1,2-diol]
IC50 (recombinant human S1PR4): > 1 µM
IC50 (recombinant human S1PR3; read-out: IC50 S1PR3, competition against [32P]S1P, recombinant human S1PR3 membranes, mean ± SD): > 1 µM
IC50 (recombinant human S1PR5): > 1 µM
IC50 (recombinant human S1PR2; read-out: IC50 S1PR2, competition against [32P]S1P, recombinant human S1PR2 membranes, mean ± SD): > 1 µM
IC50 (recombinant human S1PR1; [1]): < 0.02 µM

Structure (SMILES): OCc1ccc(-c2noc(-c3ccc(OCCF)c(C(F)(F)F)c3)n2)cc1 [10a, (4-(5-(4-(2-Fluoroethoxy)-3-(trifluoromethyl)phenyl)-1,2,4-oxadiazol-3-yl)phenyl)methanol]
IC50 (recombinant human S1PR3): > 1 µM
IC50 (recombinant human S1PR2): > 1 µM

Structure (SMILES): N#Cc1cc(-c2nc(-c3ccc(CO)cc3)no2)ccc1OCCF [10b, 2-(2-Fluoroethoxy)-5-(3-(4-(hydroxymethyl)phenyl)-1,2,4-oxadiazol-5-yl)benzonitrile]
fold decrease of S1PR1 binding potency compared to 10a (recombinant human S1PR1): 2.3 fold

Structure (SMILES): OCc1ccc(-c2noc(-c3ccc(OCCF)cc3)n2)cc1 [10c, (4-(5-(4-(2-Fluoroethoxy)phenyl)-1,2,4-oxadiazol-3-yl)-phenyl)-methanol]
IC50 (recombinant human S1PR1): > 1 µM

Structure (SMILES): CN(CCO)Cc1ccc(-c2noc(-c3ccc(OCCF)c(C(F)(F)F)c3)n2)cc1 [13b, 2-((4-(5-(4-(2-Fluoroethoxy)-3-(trifluoromethyl)phenyl)-1,2,4-oxadiazol-3-yl)benzyl)(methyl)amino)ethan-1-ol]
IC50 (recombinant human S1PR1): 0.038 µM

Structure (SMILES): OCCNCc1ccc(-c2noc(-c3ccc(OCCF)c(C(F)(F)F)c3)n2)cc1 [13d, 2-((4-(5-(4-(2-Fluoroethoxy)-3-(trifluoromethyl)phenyl)-1,2,4-oxadiazol-3-yl)benzyl)amino)ethan-1-ol]
IC50 (recombinant human S1PR1): 0.0482 µM
